The record followed here is US5658880A, “Sialic acid/fucose based medicaments” (Glycomed Incorporated, priority 1994, dated 1997).

The subject of one assay is E-selectin. The assay can be described thus: ELISA: inhibition of E-selectin-IgG chimera binding to 2,3 sLe^x glycolipid. Details: species or system human. As to conditions: inhibition of binding to 2,3 sLex glycolipid. The text has this:
(§1) An ELISA assay is preferably used that employs recombinant fusion proteins composed of extracellular portions of the human selectins joined to human immunoglobulin heavy chain CH3, CH2, and hinge regions. See, for example, Walz et al., Science (1990) 250:1132; Aruffo et al., Cell (1991) 67:35; Aruffo et al., Proc. Natl. Acad. Sci. USA. (1992) 89:2292. The assay is well known in the art, and generally consists of the following three steps:
(§2) I. 2,3 sLe^x glycolipid (25 picomole/well) was transferred into microtiter wells as solutions and then evaporated off. Excess, which remained unattached, was washed off with water. The wells were then blocked with 5% BSA at room temperature for an hour and then washed with PBS containing 1 mM calcium.
(§3) II. Preparation of "multivalent" receptor of the Selectin-lgG chimera was carried out by combining the respective chimera (1 μg/mL) with biotin labelled goat F(ab')2 anti-human IgG (Fc specific) and streptavidin-alkaline phosphatase diluted 1:1000 in 1% BSA-PBS (1 mM calcium) and incubating at 37° C. for 15 min. This allowed the soluble multivalent receptor complex to form. III. Potential inhibitors such as the compounds of formula I or II were allowed to react with the soluble receptor at 37° C. for 45 min. This test assumes that optimal binding, between the soluble phase receptor complex and the inhibitor (non natural ligand), would have occurred within this time frame. This solution was then placed in the microtiter wells that were prepared in step I. The plate was incubated at 37° C. for 45 minutes to allow the soluble receptor to bind to its natural ligand. In the presence of a strong inhibitor only a few receptors should be free to bind to the microtiter plate coated with the natural ligand.
(§4) The positive control is the signal produced by the soluble receptor when it is allowed to react with 2,3 sLe^x glycolipid in the microtiter wells in the absence of any inhibitor. This positive control was considered 100% binding. The signal produced by the receptor that had been previously treated with an inhibitor (recorded as O.D.), was divided by the signal produced by the positive control and multiplied by 100 to calculate the % receptor bound to the well in the presence of the inhibitor. The reciprocal of this number is the % inhibition.
(§5) An ELISA assay was employed that uses recombinant fusion proteins composed of extracellular portions of the human selectins joined to human immunoglobulin heavy chain CH3, CH2, and hinge regions. See, for example, Walz et al., Science (1990) 250:1132; Aruffo et al., Cell (1991) 67:35; Aruffo et al., Proc. Natl. Acad. Sci. USA (1992) 89:2292. The assay is well known in the art, and generally consists of the following three steps:
(§6) II. Preparation of "multivalent" receptor of the Selectin-IgG chimera was carried out by combining the respective chimera 1 μg/ml) with biotin labelled goat F(ab')2 anti-human IgG (Fc specific) and streptavidin-alkaline phosphatase diluted 1:1000 in 1% BSA-PBS (1 mM calcium) and incubating at 37° C. for 15 min. This allowed the soluble multivalent receptor complex to form.
(§7) III. Potential inhibitors such as compounds of formula I or II were allowed to react with the soluble receptor at 37° C. for 45 min. This test assumes that optimal binding, between the soluble phase receptor complex and the inhibitor (non natural ligand), would have occurred within this time frame. This solution was then placed in the microtiter wells that were prepared in step I. The plate was incubated at 37° C. for 45 minutes to allow the soluble receptor to bind to its natural ligand. In the presence of a strong inhibitor only a few receptors should be free to bind to the microtiter plate coated with the natural ligand.
(§8) The positive control is the signal produced by the soluble receptor when it is allowed to react with 2,3 sLe^x glycolipid in the microtiter wells in the absence of any inhibitor. This was considered 100% binding. […]

For another assay, the system named is L-selectin. The assay can be described thus: ELISA: inhibition of L-selectin-IgG chimera binding to 2,3 sLe^x glycolipid. On the set-up: species or system human.
Text: as §1, §2, §3, §4, §5, §6, §7, §8

The subject of the next assay is P-selectin. The assay can be described thus: ELISA: inhibition of P-selectin-IgG chimera binding to 2,3 sLe^x glycolipid. Details: species or system human. As to conditions: inhibition of binding to 2,3 sLex glycolipid.
Text: as §1, §2, §3, §4, §5, §6, §7, §8

The test system of assay [1] is neutrophil migration into the peritoneum. Put plainly: Murine thioglycollate induced peritonitis: neutrophil migration to the peritoneal cavity. The assay is classed as in vivo, mouse (Swiss Webster). As to conditions: mice, tail vein injection, 3 h after thioglycollate, FIG. 7(a) and (b). The text has this:
The efficaciousness of 7 and 10 was shown using a murine thioglycollate induced peritonitis model. The assay materials and methods are known in the art, or are generally described by Lewinsohn, D. et al., J. Immun., 138:4313-4321 (1987), or Watson, S. et al., Nature 349:164-166 (1991). This assay measures the ability of the compounds to inhibit neutrophil migration to the peritoneal cavity, the migration being initiated by the presence of thioglycollate in the peritoneal cavity. Thioglycollate is a known and effective inflammatory agent that causes neutrophil migration into the mouse peritoneum when it is administered intraperitoneally. Lewinsohn, D. et al., J. Immun. (1987) 138:4313-4321. Briefly, female Swiss Webster mice weighing about 25 grams were injected in the tail vein with 200 μl of phosphate buffered saline (PBS) with or without the appropriate compound. The pH of the solutions was adjusted to neutrality by the addition of either NaOH or HCL and sterilized by filtration through a 0.2 μ filter. Immediately following injection with the appropriate compound or PBS, the mice were injected intraperitoneally with 1 ml of thioglycollate medium prepared as described by the manufacturer, BBL. Three hours following injection of the thioglycollate solution the mice were sacrificed by CO2 asphyxiation, and the number of cells in the peritoneum removed by lavage with 5 ml of heparinized (5 U/ml) 0.9% sodium chloride solution containing 0.1% bovine serum albumin. Cell number was determined using a Coulter Counter. The cells were prepared for counting by diluting the lavage fluid with 1:50 of a commercial physiological isotonic solution, Isoton II, and the cells lysed by adding S/P Lysing and Hemoglobin Reagent (1:100 final dilution). Cell nuclei were counted in a sized window with lower and upper limits set at 3.9 and 5.7 μm, respectively.

Each structure is given as a SMILES string.

In the case of `CC(OCCCCCCOC1O[C@@H](C)[C@@H](O)[C@@H](O)[C@@H]1O)C(=O)O` (stereo partly drawn) [Compound 10, 1-O-(α-β-L-Fucopyranosyl)-6-O-[(R,S)-1-Carboxyethyl]-Hexane], the IC50 with E-selectin was 2000 to 3000 µM; in the assay on L-selectin (inhibition of binding to 2,3 sLex glycolipid), 2000 to 3000 µM; in the assay with P-selectin, about 500 µM. Further, the “inhibition of L-selectin binding to 2,3 sLe^x glycolipid” value with L-selectin (FIG. 5 and FIG. 6, result in words) was “at all four concentrations of the compound tested there is significant inhibitory activity”. Also, the “inhibit neutrophil migration into the peritoneum” value in assay [1] is “inhibit neutrophil migration into the peritoneum”.
